Source: PubChem BioAssay (NCI)
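GI50 is the concentration that inhibits growth by half. Definition used: TGI = concentration required for complete inhibition of growth.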

Key:
Experiment in all cases: NCI tumour cell line growth inhibition, 384-well format
[1] = tested on: UACC-62 melanoma
[2] = tested on: TK-10 renal
[3] = tested on: SN12C renal
[4] = tested on: NCI-H322M lung
[5] = tested on: NCI-H23 lung
[6] = tested on: M14 melanoma
[7] = tested on: NCI/ADR-RES ovarian
[8] = tested on: LOX IMVI melanoma
[9] = tested on: UACC-257 melanoma
[10] = tested on: HOP-62 NSCLC
[11] = tested on: 786-0 renal
[12] = tested on: U251 glioblastoma
[13] = tested on: SF-295 CNS
[14] = tested on: DU-145 prostate
[15] = tested on: OVCAR-3 ovarian
[16] = tested on: A549 NSCLC
[17] = tested on: OVCAR-4 ovarian
[18] = tested on: RPMI-8226 leukemia
[19] = tested on: MDA-MB-231 breast
[20] = tested on: HCT-116 colon
[21] = tested on: HCT-15 colon
[22] = tested on: CAKI-1 renal
[23] = tested on: MDA-MB-468 breast
[24] = tested on: SW-620 colon
[25] = tested on: MCF7 breast
[26] = tested on: HCC-2998 colon
[27] = tested on: RXF 393 renal
[28] = tested on: SNB-19 CNS
[29] = tested on: MALME-3M melanoma
[30] = tested on: SK-MEL-28 melanoma
[31] = tested on: BT-549 breast
[32] = tested on: NCI-H522 lung
[33] = tested on: HL-60(TB) leukemia
[34] = tested on: COLO 205 colon
[35] = tested on: ACHN renal
[36] = tested on: MDA-MB-435 melanoma
[37] = tested on: KM12 colon
[38] = tested on: SNB-75 CNS
[39] = tested on: MOLT-4 leukemia
[40] = tested on: A498 renal
[41] = tested on: PC-3 prostate
[42] = tested on: SF-268 CNS
[43] = tested on: SK-OV-3 ovarian
[44] = tested on: SR leukemia
[45] = tested on: UO-31 renal
[46] = tested on: EKVX NSCLC
[47] = tested on: NCI-H226 lung
[48] = tested on: SK-MEL-5 melanoma
[49] = tested on: T-47D breast
[50] = tested on: HS 578T breast
[51] = tested on: OVCAR-8 ovarian
[52] = tested on: NCI-H460 NSCLC
[53] = tested on: IGROV1 ovarian
[54] = tested on: K-562 leukemia
[55] = tested on: HT29 colon
[56] = tested on: CCRF-CEM leukemia
[57] = tested on: OVCAR-5 ovarian
[58] = tested on: SK-MEL-2 melanoma
[59] = tested on: HOP-92 NSCLC
[60] = tested on: SF-539 CNS

## Cc1ccc(Nc2nccc(N(C)c3ccc4c(C)n(C)nc4c3)n2)cc1S(N)(=O)=O
[1]
  GI50: 6.37 µM
  TGI: 20.8 µM
[2]
  GI50: 31.6 µM
  TGI: > 100 µM
[3]
  GI50: 7.86 µM
  TGI: > 100 µM
[4]
  GI50: 7.64 µM
  TGI: 45.5 µM
[5]
  GI50: 4.79 µM
  TGI: 69.6 µM
[6]
  GI50: 8.19 µM
  TGI: 52.9 µM
[7]
  GI50: 30.5 µM
  TGI: 93.6 µM
[8]
  GI50: 3.62 µM
  TGI: 40.4 µM
[9]
  GI50: 12 µM
  TGI: 62.2 µM
[10]
  GI50: 6.28 µM
  TGI: 34.5 µM
[11]
  GI50: 4.16 µM
  TGI: > 100 µM
[12]
  GI50: 9.87 µM
  TGI: > 100 µM
[13]
  GI50: 8.89 µM
  TGI: > 100 µM
[14]
  GI50: 9.34 µM
  TGI: > 100 µM
[15]
  GI50: 22.6 µM
  TGI: > 100 µM
[16]
  GI50: 4.55 µM
  TGI: > 100 µM
[17]
  GI50: 9.52 µM
  TGI: 35.6 µM
[18]
  GI50: 3.57 µM
  TGI: 11.5 µM
[19]
  GI50: 5.54 µM
  TGI: > 100 µM
[20]
  GI50: 5.38 µM
  TGI: > 100 µM
[21]
  GI50: 4.4 µM
  TGI: 37.8 µM
[22]
  GI50: 3.78 µM
  TGI: > 100 µM
[23]
  GI50: 2970 nM
  TGI: 62.9 µM
[24]
  GI50: > 100 µM
  TGI: > 100 µM
[25]
  GI50: 7.41 µM
  TGI: > 100 µM
[26]
  GI50: > 100 µM
  TGI: > 100 µM
[27]
  GI50: 485 nM
  TGI: 3.04 µM
[28]
  GI50: > 100 µM
  TGI: > 100 µM
[29]
  GI50: 2730 nM
  TGI: > 100 µM
[30]
  GI50: 55.2 µM
  TGI: > 100 µM
[31]
  GI50: 1610 nM
  TGI: 16.6 µM
[32]
  GI50: 6.73 µM
  TGI: 99.3 µM
[33]
  GI50: 7.4 µM
  TGI: 18.3 µM
[34]
  GI50: 14 µM
  TGI: > 100 µM
[35]
  GI50: 6.18 µM
  TGI: > 100 µM
[36]
  GI50: 78.6 µM
  TGI: > 100 µM
[37]
  GI50: 7 µM
  TGI: > 100 µM
[38]
  GI50: 2510 nM
  TGI: 29 µM
[39]
  GI50: 2360 nM
  TGI: 6.45 µM
[40]
  GI50: 6.05 µM
  TGI: 90.9 µM
[41]
  GI50: 11.2 µM
  TGI: 70.9 µM
[42]
  GI50: 12.6 µM
  TGI: > 100 µM
[43]
  GI50: 6.47 µM
  TGI: > 100 µM
[44]
  GI50: 6.38 µM
  TGI: 12.1 µM
[45]
  GI50: 8.29 µM
  TGI: > 100 µM
[46]
  GI50: 14.3 µM
  TGI: > 100 µM
[47]
  GI50: 1990 nM
  TGI: 13.3 µM
[48]
  GI50: 3.03 µM
  TGI: 10.7 µM
[49]
  GI50: 2520 nM
  TGI: 11.4 µM
[50]
  GI50: 2300 nM
  TGI: 7.68 µM
[51]
  GI50: 8.01 µM
  TGI: 61.3 µM
[52]
  GI50: 5.27 µM
  TGI: > 100 µM
[53]
  GI50: 5.68 µM
  TGI: > 100 µM

## O=C(O)[C@H](Cc1c[nH]c2ccccc12)N1C(=O)c2ccccc2C1=O
[1]
  GI50: > 100 µM
  TGI: > 100 µM
[2]
  GI50: > 100 µM
  TGI: > 100 µM
[3]
  GI50: > 100 µM
  TGI: > 100 µM
[4]
  GI50: > 100 µM
  TGI: > 100 µM
[5]
  GI50: > 100 µM
  TGI: > 100 µM
[6]
  GI50: > 100 µM
  TGI: > 100 µM
[7]
  GI50: > 100 µM
  TGI: > 100 µM
[54]
  GI50: > 100 µM
  TGI: > 100 µM
[8]
  GI50: > 100 µM
  TGI: > 100 µM
[9]
  GI50: > 100 µM
  TGI: > 100 µM
[10]
  GI50: > 100 µM
  TGI: > 100 µM
[11]
  GI50: > 100 µM
  TGI: > 100 µM
[12]
  GI50: > 100 µM
  TGI: > 100 µM
[13]
  GI50: > 100 µM
  TGI: > 100 µM
[14]
  GI50: > 100 µM
  TGI: > 100 µM
[15]
  GI50: > 100 µM
  TGI: > 100 µM
[16]
  GI50: > 100 µM
  TGI: > 100 µM
[17]
  GI50: > 100 µM
  TGI: > 100 µM
[18]
  GI50: > 100 µM
  TGI: > 100 µM
[55]
  GI50: > 100 µM
  TGI: > 100 µM
[19]
  GI50: > 100 µM
  TGI: > 100 µM
[20]
  GI50: > 100 µM
  TGI: > 100 µM
[21]
  GI50: > 100 µM
  TGI: > 100 µM
[22]
  GI50: > 100 µM
  TGI: > 100 µM
[56]
  GI50: > 100 µM
  TGI: > 100 µM
[23]
  GI50: > 100000 nM
  TGI: > 100 µM
[24]
  GI50: > 100 µM
  TGI: > 100 µM
[57]
  GI50: > 100 µM
  TGI: > 100 µM
[25]
  GI50: > 100 µM
  TGI: > 100 µM
[26]
  GI50: > 100 µM
  TGI: > 100 µM
[27]
  GI50: > 100000 nM
  TGI: > 100 µM
[28]
  GI50: > 100 µM
  TGI: > 100 µM
[29]
  GI50: > 100000 nM
  TGI: > 100 µM
[30]
  GI50: > 100 µM
  TGI: > 100 µM
[31]
  GI50: > 100000 nM
  TGI: > 100 µM
[32]
  GI50: > 100 µM
  TGI: > 100 µM
[33]
  GI50: > 100 µM
  TGI: > 100 µM
[58]
  GI50: > 100 µM
  TGI: > 100 µM
[59]
  GI50: > 100 µM
  TGI: > 100 µM
[34]
  GI50: > 100 µM
  TGI: > 100 µM
[35]
  GI50: > 100 µM
  TGI: > 100 µM
[36]
  GI50: > 100 µM
  TGI: > 100 µM
[37]
  GI50: > 100 µM
  TGI: > 100 µM
[38]
  GI50: > 100000 nM
  TGI: > 100 µM
[39]
  GI50: > 100000 nM
  TGI: > 100 µM
[40]
  GI50: > 100 µM
  TGI: > 100 µM
[41]
  GI50: > 100 µM
  TGI: > 100 µM
[42]
  GI50: > 100 µM
  TGI: > 100 µM
[43]
  GI50: > 100 µM
  TGI: > 100 µM
[44]
  GI50: > 100 µM
  TGI: > 100 µM
[45]
  GI50: > 100 µM
  TGI: > 100 µM
[46]
  GI50: > 100 µM
  TGI: > 100 µM
[47]
  GI50: > 100000 nM
  TGI: > 100 µM
[48]
  GI50: > 100 µM
  TGI: > 100 µM
[49]
  GI50: > 100000 nM
  TGI: > 100 µM
[50]
  GI50: > 100000 nM
  TGI: > 100 µM
[60]
  GI50: > 100 µM
  TGI: > 100 µM
[51]
  GI50: > 100 µM
  TGI: > 100 µM
[52]
  GI50: > 100 µM
  TGI: > 100 µM
[53]
  GI50: > 100 µM
  TGI: > 100 µM
